According to ChEMBL document CHEMBL5143548, “Morphinan derivatives with an oxabicyclo[3.2.1]octane structure as dual agonists toward δ and κ opioid receptors” (Bioorg Med Chem, 2022):
pEC50, pKi: −log10 of the molar value.

Columns and labels:
[1] = target: mu opioid receptor (MOR) (Homo sapiens, UniProt P35372); test: Agonist activity at human mu opioid receptor expressed in CHO cell membranes assessed as stimulation of [35S]GTPgammaS binding incubated for 2 hrs by scintillation counting method relative to DAMGO; parameters: species or system Membrane; conditions: CHO cell membranes expressing human mu opioid receptor, probe [35S]GTPgammaS
Sequence of mu opioid receptor (MOR) (P35372 whole entry): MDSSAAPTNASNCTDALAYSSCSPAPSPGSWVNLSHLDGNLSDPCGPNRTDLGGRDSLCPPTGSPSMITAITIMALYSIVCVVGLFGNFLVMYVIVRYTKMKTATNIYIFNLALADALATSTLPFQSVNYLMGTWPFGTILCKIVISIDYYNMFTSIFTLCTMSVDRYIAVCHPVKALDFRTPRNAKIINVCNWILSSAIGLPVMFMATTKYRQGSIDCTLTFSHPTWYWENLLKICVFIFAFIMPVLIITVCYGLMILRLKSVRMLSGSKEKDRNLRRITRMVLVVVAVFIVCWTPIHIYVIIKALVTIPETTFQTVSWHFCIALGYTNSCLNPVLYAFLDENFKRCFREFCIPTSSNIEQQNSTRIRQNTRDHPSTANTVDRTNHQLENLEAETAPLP

[2] = target: T1, Mu-type opioid receptor (Homo sapiens, UniProt P35372); test: Displacement of [3H]-DAMGO from recombinant human MOR expressed in CHO cell membranes measured after 2 hrs by microbeta scintillation counting method; parameters: species or system Membrane
T1 sequence (P35372 whole entry): as above

[3] = target: T2, Kappa-type opioid receptor (Homo sapiens, UniProt P41145); test: Agonist activity at human kappa opioid receptor expressed in CHO cell membranes assessed as stimulation of [35S]GTPgammaS binding incubated for 2 hrs by scintillation counting method; type: functional, Membrane
T2 sequence (P41145 whole entry): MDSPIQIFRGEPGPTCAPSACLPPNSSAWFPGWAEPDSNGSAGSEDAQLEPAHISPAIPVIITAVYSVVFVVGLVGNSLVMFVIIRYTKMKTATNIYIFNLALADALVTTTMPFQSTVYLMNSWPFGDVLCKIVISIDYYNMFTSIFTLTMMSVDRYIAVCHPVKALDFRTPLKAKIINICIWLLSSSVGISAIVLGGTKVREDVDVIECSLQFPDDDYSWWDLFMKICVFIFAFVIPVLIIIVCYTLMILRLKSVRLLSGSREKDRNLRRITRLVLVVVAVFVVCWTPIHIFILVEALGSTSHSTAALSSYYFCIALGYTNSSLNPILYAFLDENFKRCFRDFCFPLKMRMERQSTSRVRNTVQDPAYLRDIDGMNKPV

[4] = organism: Homo sapiens; test: Selectivity ratio of Ki for displacement of [3H]-DPDPE from recombinant human DOR expressed in CHO cell membranes to Ki for displacement of [3H]-U-69593 from recombinant human KOR expressed in CHO cell membranes
[5] = target: T3, Delta-type opioid receptor (Homo sapiens, UniProt P41143); test: Agonist activity at human delta opioid receptor expressed in CHO cell membranes assessed as stimulation of [35S]GTPgammaS binding incubated for 2 hrs by scintillation counting method relative to SNC80; type: functional; conditions: Membrane
T3 sequence (P41143 whole entry): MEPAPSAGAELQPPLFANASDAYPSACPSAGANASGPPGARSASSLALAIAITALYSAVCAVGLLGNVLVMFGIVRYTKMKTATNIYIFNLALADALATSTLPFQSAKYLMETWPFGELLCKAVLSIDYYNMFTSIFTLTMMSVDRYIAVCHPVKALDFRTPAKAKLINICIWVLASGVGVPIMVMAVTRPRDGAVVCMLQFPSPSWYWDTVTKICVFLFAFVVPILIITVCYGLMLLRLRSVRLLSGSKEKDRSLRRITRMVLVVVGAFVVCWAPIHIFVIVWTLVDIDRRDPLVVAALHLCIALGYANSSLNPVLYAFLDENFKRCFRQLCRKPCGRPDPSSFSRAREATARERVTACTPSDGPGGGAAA

[6] = target: T2, Kappa-type opioid receptor; test: Displacement of [3H]-U-69593 from recombinant human KOR expressed in CHO cell membranes measured after 2 hrs by microbeta scintillation counting method; parameters: species or system Membrane
[7] = target: T2, Kappa-type opioid receptor; test: Agonist activity at human kappa opioid receptor expressed in CHO cell membranes assessed as stimulation of [35S]GTPgammaS binding incubated for 2 hrs by scintillation counting method relative to U-69593; type: functional; conditions: Membrane
[8] = target: T3, Delta-type opioid receptor; test: Agonist activity at human delta opioid receptor expressed in CHO cell membranes assessed as stimulation of [35S]GTPgammaS binding incubated for 2 hrs by scintillation counting method; type: functional, Membrane
[9] = organism: Homo sapiens; test: Selectivity ratio of Ki for displacement of [3H]-DAMGO from recombinant human MOR expressed in CHO cell membranes to Ki for displacement of [3H]-U-69593 from recombinant human KOR expressed in CHO cell membranes
[10] = target: T1, Mu-type opioid receptor; test: Agonist activity at human mu opioid receptor expressed in CHO cell membranes assessed as stimulation of [35S]GTPgammaS binding incubated for 2 hrs by scintillation counting method; parameters: species or system Membrane
[11] = target: T3, Delta-type opioid receptor; test: Displacement of [3H]-DPDPE from recombinant human DOR expressed in CHO cell membranes measured after 2 hrs by microbeta scintillation counting method; parameters: species or system Membrane
[12] = target: T1, Mu-type opioid receptor; test: Agonist activity at human mu opioid receptor expressed in CHO cell membranes assessed as stimulation of [35S]GTPgammaS binding at 10 uM incubated for 2 hrs by scintillation counting method relative to DAMGO; parameters: species or system Membrane

SMILES	Emax at 2 h [1] [%]	pKi [2]	pEC50 [3]	Ratio Ki [4]	Emax ([5]; filed as agonist) [%]	pKi [6]	Emax ([7]; filed as partial agonist) [%]	pEC50 [8]	Ratio Ki [9]	pEC50 [10]	pKi [11]	Emax [5] [%]	Emax [7] [%]	Activity [12] [%]
O=C(Cc1ccccc1)N[C@@H]1C[C@]23CCN(CC4CC4)[C@H](Cc4ccc(O)cc42)[C@]32CC[C@@H]1O2	28.2	9.57	8.51	2.7	85.3	9.71	68.4	8.22	1.4	8.03	9.28			
O=C(N[C@@H]1C[C@]23CCN(CC4CC4)[C@H](Cc4ccc(O)cc42)[C@]32CC[C@@H]1O2)c1ccccc1	47.2	9.78	8.74	11.9	106	9.85	87.7	8.54	1.2	8.57	8.78			
CN(C(=O)c1ccccc1)[C@@H]1C[C@]23CCN(CC4CC4)[C@H](Cc4ccc(O)cc42)[C@]32CC[C@@H]1O2	47.5	8.85	8.80	90.6		9.59		9.77	5.5	8.33	7.63	27.7	34.6	
O=C(CCc1ccccc1)N[C@@H]1C[C@]23CCN(CC4CC4)[C@H](Cc4ccc(O)cc42)[C@]32CC[C@@H]1O2	10.2	9.90	8.27	26.3	104	9.71	75.4	6.95	0.64	7.90	8.29			
O=C(CCc1ccccc1)N[C@H]1C[C@]23CCN(CC4CC4)[C@H](Cc4ccc(O)cc42)[C@]32CC[C@@H]1O2	11.4	8.97	8.20	2.2	111	8.63	50.3	7.26	0.46	8.03	8.29			
CN(C(=O)Cc1ccccc1)[C@@H]1C[C@]23CCN(CC4CC4)[C@H](Cc4ccc(O)cc42)[C@]32CC[C@@H]1O2	40.3	8.76	8.07	70.1		9.56	88.6	7.36	6.3	8.15	7.71	39.7		
O=C(Cc1ccccc1)N[C@H]1C[C@]23CCN(CC4CC4)[C@H](Cc4ccc(O)cc42)[C@]32CC[C@@H]1O2	8.7	8.42	7.87	2.9	101	8.77		8.42	2.2	8.27	8.30		35.8	
O=C(N[C@H]1C[C@]23CCN(CC4CC4)[C@H](Cc4ccc(O)cc42)[C@]32CC[C@@H]1O2)c1ccccc1		9.25	7.49	0.54	97.4	7.97		7.28	0.05		8.25		23.7	10.2
CN(C(=O)CCc1ccccc1)[C@@H]1C[C@]23CCN(CC4CC4)[C@H](Cc4ccc(O)cc42)[C@]32CC[C@@H]1O2	33.4	8.84	8.00	61.7	85.2	9.48	58.5	7.67	4.4	8.25	7.69			
